From article PMC9692753, “Pentapeptide-Zinc Chelate from Sweet Almond Expeller Amandin Hydrolysates: Structural and Physicochemical Characteristics, Stability and Zinc Transport Ability In Vitro” (Molecules, 2022) come the findings set out here.

Marks after values point to notes of the source that are not given here. Where no end group is shown, it is not given here.

The nature of series [1]: Zinc-chelating ability assay (PAR colorimetric method). The format is binding. To be noted: sample in 0.1 mol/L HEPES-KOH buffer, DTT 8 mmol/L, ZnSO4 250 μmol/L, 37 °C 10 min, absorbance at 500 nm, n ≥ 3. The method, then: Zinc-chelating ability was determined using the PAR colorimetric method. […] The mixed solution was stirred (180 r/min) at 37 °C for 10 min, and then 250 μL PAR (0.2 mmol/L, pH 7.5) was added. After incubation at 37 °C for 3 min, the absorbance at 500 nm was read. […] Zinc-chelating capacity was calculated as follows:(1) Zinc chelating ability mg/g=Cc−Cs× 65.38×10^−3×V /M where, Cc (μmol/L) is the zinc concentration in the reaction solution without samples; Cs is the zinc concentration in reaction solution after the chelating reaction (μmol/L); V is the volume of the reaction solution; M is the mass of the samples (g); and 65.38 is the mol mass of zinc (g/mol).

A further series relates to Caco-2 cells. The series is described as follows: Cell viability of Caco-2 cells (MTT method). Format: cell-based.
A short description of series [2]: Thermal stability of zinc solubility (boiling water). To be noted: chelate 1 mg/mL in ultrapure water, zinc sulphate and zinc gluconate 100 μg/mL; boiling water 10, 20, 40, 60 min; zinc in supernatant / total zinc; PAR method; n ≥ 3; Figure 7. The method, then: SAEAH peptide-zinc chelate solution (1 mg/mL, dispersed in ultrapure water) was incubated in boiling water for 10, 20, 40 and 60 min [37]. After centrifugation at 6000× g for 15 min, the supernatant was collected for zinc content determination.

Method for Caco-2 cells: In addition, effects of ZnSO4/zinc gluconate and peptide-zinc chelate on cell viability were measured using the MTT method [38].

In the case of “VDLVAEVPRGL [peptide identified in sweet almond expeller amandin hydrolysates]”, the Zinc chelating capacity in series [1] was 4.33 ± 0.33 ^e mg/g. On the same count and under the same terms, as for `O=C(O)CN(CCN(CC(=O)O)CC(=O)O)CC(=O)O` [EDTA], the figure is 57.17 ± 2.63 ^d mg/g. Consider `O=C([O-])[C@H](O)[C@@H](O)[C@H](O)[C@H](O)CO.O=C([O-])[C@H](O)[C@@H](O)[C@H](O)[C@H](O)CO.[Zn+2]` [zinc gluconate], for which, in the series with Caco-2 cells, the “Cytotoxicity toward Caco-2 cells” value was “no significant (p > 0.05) cytotoxicity”. Besides, the “Zinc solubility stability against incubation at 100 °C (result in words)” value in series [2] is “not reduced significantly”.
